{"source": "patent US10426757B2", "about": "“Compositions and methods for promoting intestinal stem cell and/or non-stem progenitor cell function” (Whitehead Institute for Biomedical Research, priority 2014, dated 2019)", "key": {"[1]": {"tested_on": "Apc-null Lgr5-GFP^hi ISCs and Lgr5-GFP^low progenitors", "assay": "Orthotopic transplantation of Apc-null cells into recipient colons", "type": "in vivo, mouse", "details": "10,000 cells from GW501516-treated mice; for adenoma initiation by transplanted Apc-null Lgr5-GFP^low progenitors: vehicle 0±0", "text": "To test this possibility, the present inventors generated Apc^loxp/loxp; Lgr5-EGFP-IRES-CreERT2 mice to assess whether pharmacological PPAR-δ activation modifies the tumorigenic capacity of the Lgr5-GFP^low progenitors. Injection with tamoxifen leads to Apc-loss in the Lgr5-GFP^hi ISCs, which in turn generate Apc-null Lgr5-GFP^low progenitors. Four days after tamoxifen administration, we flow sorted Apc-null Lgr5-GFP^hi ISCs and Lgr5-GFP^low progenitors from vehicle and PPAR-δ agonist treated mice to assess the tumor-forming potential of these populations using separate assays (FIG. 7B): first, we examined their ability to give rise to adenomatous organoids in culture; and second, we interrogated the ability of 10,000 freshly sorted stem and progenitor cells to initiate adenomatous lesions in syngeneic recipient colons.\nApc^loxp/loxp; Lgr5-EGFP-IRES-CreERT2 mice were treated with vehicle or GW501516 for one month, and then injected with two doses of tamoxifen I.P. Four days later, Apc-null Lgr5-GFP^hi ISCs and Lgr5-GFP^low progenitors were sorted by flow cytometry, as described above. For primary cell transplantations, 10,000 Apc-null Lgr5-GFP^hi ISCs and Lgr5-GFP^low progenitors were resuspended into 90% crypt culture media (as described) and 10% Matrigel™, then transplanted into the colonic lamina propria of C57BL/6 recipient mice by optical colonoscopy using an injection needle (Hamilton Inc., part number 7750-21, 30 gauge, Kel-F Hub NDL, 14 inches length, 45 degree bevel) and specialized syringe (Hamilton Inc, part number 81242, 500 μL, Model 1750 LT Threaded Plunger). Optical colonoscopy was performed using a Karl Storz Image 1 HD Camera System, Image 1 HUB CCU, 175 Watt Xenon Light Source, and Richard Wolf 1.9 mm/9.5 Fr Integrated Telescope (part number 8626.431). Four injections were performed per mouse. Mice then underwent colonoscopy four weeks later to assess tumor formation. Colonoscopy videos and images were saved for offline analysis. […]"}, "aged crypts": {"tested_on": "aged crypts", "assay": "Stem cell frequency and organoid formation in aged mice", "type": "in vivo, mouse", "procedure": "(§1) Isolated ISCs or progenitor cells were centrifuged for 5 minutes at 250 g, re-suspended in the appropriate volume of crypt culture medium (500-1,000 cells μl^−1), then seeded onto 25-30 μl Matrigel™ (Corning 356231 growth factor reduced) containing 1 μM jagged (Ana-Spec) in a flat bottom 48-well plate (Corning 3548). Alternatively, ISCs and Paneth cells were mixed after sorting in a 1:1 ratio, centrifuged, and then seeded onto Matrigel™. The Matrigel™ and cells were allowed to solidify before adding 300 μl of crypt culture medium. The crypt media was changed every second or third day. Organoid bodies were quantified on days 3, 7 and 10 of culture, unless otherwise specified. With respect to the study results presented in FIGS. 14-16, organoid bodies were quantified on day 3-4. In secondary experiments, individual primary organoids were mechanically dissociated and re-plated, or organoids were dissociated for 10 minutes in TrypLE Express at 32° C., re-suspended with SMEM (Life Technologies), centrifuged and re-suspended in cold SMEM with viability dye 7-AAD. Live cells were sorted and seeded onto Matrigel™ as previously described. With respect to the study results presented in FIGS. 14-16, young mice were 2-4 months old. Old mice range from 18-25 months of age. The mice were on a standard chow diet. Mice received a single daily injection with the indicated amount of GW501516 or vehicle in the afternoon. Intestines were harvested the following morning."}, "Lgr5-GFP^hi ISCs": {"tested_on": "Lgr5-GFP^hi ISCs", "assay": "Organoid formation by sorted Lgr5-GFP^hi ISCs with or without Paneth cells", "type": "cell-based, mouse", "details": "ISCs from GW501516-treated mice, no Paneth cells, vs vehicle; listed as GW501515", "procedure": "as §1, with “described.” for “described. With respect to the study results presented in FIGS. 14-16, young mice were 2-4 months old. Old mice range from 18-25 months of age. The mice were on a standard chow diet. Mice received a single daily injection with the indicated amount of GW501516 or vehicle in the afternoon. Intestines were harvested the following morning.”"}}}
{"smiles": "Cc1cc(SCc2sc(-c3ccc(C(F)(F)F)cc3)nc2C)ccc1OCC(=O)O", "note": "[GW501516, 2-[2-methyl-4-[[4-methyl-2-[4-(trifluoromethyl)phenyl]-1,3-thiazol-5-yl]methylsulfanyl]phenoxy]acetic acid]", "values": [{"measurement": "adenoma initiation by transplanted Apc-null Lgr5-GFP^low progenitors", "setting": "[1]", "value": "initiated tumors"}, {"measurement": "adenoma initiation by transplanted Apc-null Lgr5-GFP^low progenitors", "setting": "[1]; listed as PPAR-δ agonist", "value": "0.58±0.16"}, {"measurement": "intestinal adenoma formation by transplanted Apc-null Lgr5-GFP^hi ISCs", "setting": "[1]; vehicle 0.67±0.13, listed as PPAR-δ agonist", "value": "0.61±0.19"}, {"measurement": "organoid formation of co-cultured ISCs and Paneth cells from aged animals", "setting": "aged crypts; GW501516 vs old vehicle, day 3", "value": "significantly boosts organoid formation"}, {"measurement": "frequency of organoid formation in aged crypts", "setting": "aged crypts; aged mice, GW501516 treatment", "value": "increases the frequency of organoid formation"}, {"measurement": "frequency of stem cells", "setting": "aged crypts; aged mice, GW501516 treatment", "value": "increases the frequency of stem cells"}, {"measurement": "Paneth cell-independent organoid-initiating capacity of Lgr5-GFP^hi ISCs", "setting": "Lgr5-GFP^hi ISCs", "value": "sufficient to enhance"}]}
